# Results taken from patent publication US9782360B2, “Fluorinated CBD compounds, compositions and uses thereof” (YISSUM RESEARCH DEVELOPMENT COMPANY OF THE HEBREW …, priority 2013, dated 2017).
# “And” between values parts separate entries of the source, which are not always exact repeats. Equal values may be shown once.
# Key:
# [1] = tested on: rats submitted to the elevated plus maze; details: intra-dlPAG, same paradigm; doses tested: 15, 30 and 60 nmol; cited from earlier work
# Swiss mice [2] = details: Moreira and Guimarães, 2005; cited from earlier work
# Swiss mice [3] = details: cited from earlier work
# mice tested in the FST [4] = details: i.p., Swiss mice; doses tested 3, 10, 30 and 100 mg/kg; cited from earlier work
# [5] = Campos & Guimarães, 2008; cited from earlier work
# Swiss mice [6] = details: single administration i.p., MK801 0.3-1 mg/kg i.p., also tested 1 and 15 mg/kg; cited from earlier work
# mice tested in the FST [7] = experiment: Forced swimming test (FST) in mice; assay type: in vivo, Swiss mice; details: for immobility time in the FST: IP
# Description: (§1) Male Wistar rats (220-250 g) and Swiss mice (25-30 g) originated from the Central Animal Farm of the School of Medicine of Ribeirão Preto (FMRP-USP) were maintained in groups of five animals per box (41×33×17 cm) in a temperature controlled room (24±2° C.) with a 12×12 h light-dark cycle. They received water and food ad libitum throughout the study period.
# (§2) HU-474 (1, 3 and 10 mg/kg) was administered intraperitoneally (IP) in mice at 10 mL/kg volume and HU-475 (1, 3 and 10 nmol) was injected intra-dlPAG in rats. Both drugs were dissolved in 2% Tween 80 in sterile saline.
# Animals were individually submitted for 6 min of forced swimming in glass cylinders (height 25 cm, diameter 17 cm) containing 10 cm of water. The mice were videotaped and the immobility time (characterized by slow movements necessary to avoid drowning) was measured during the last 4-min period. The water was changed after each trial to maintain the temperature at 23-25° C. and to prevent the influence of alarm substances (Zanelati et al., 2010).
# (§3) Results from HU-475 and HU-474 tests in the elevated plus maze were analyzed by Kruskal-Wallis followed by Mann-Whitney tests. Data from animals tested in the FST were analyzed by one-way ANOVA followed by Duncan test.
# [8] = tested on: mice tested in the elevated plus maze; experiment: Elevated plus-maze (EPM) in mice, systemic (IP) administration; assay type: in vivo, Swiss mice
# Description: as §1, §2
# The wood EPM used to perform the experiments was located in a sound attenuated and temperature controlled room (23° C.), with one incandescent light (40 W) placed 1.3 m away from the maze. The apparatus consists of two opposing open arms (50×10 cm) without side walls, perpendicular to two enclosed arms (50×10×40 cm), with a central platform common to all arms (10×10 cm). The apparatus is elevated 50 cm above the ground and has an acrylic edge (1 cm) in the open arms to prevent animal falls. In this model, rodents naturally avoid the open arms, exploring more extensively the enclosed arms. Anxiolytic drugs increase the exploration in open arms without affecting the number of enclosed arms entries, which is usually used to assess general exploratory activity (File, 1992). Ten minutes after the last injection the animal was placed on the central platform of the maze with the head facing one of the enclosed arms. The test lasted for 5 min and was recorded. The animal behavior was analyzed with the help of the Anymaze Software (version 4.5, Stoelting). This software indicates the location of the animal in the EPM and automatically calculates the percentage of entries (Peo) and time spent in the open arms (Pto) and the number of entries in the enclosed arms (EA). Animals were only considered to enter an open or enclosed arm when 90% of their bodies were inside the region. All experiments were performed in the morning period (8 to 12 a.m.).
# Similar to 5.1 except that the each arm measured 30×5 cm.
# as §3
# C57BL/6J mice = experiment: Pre-pulse inhibition (PPI) test, impairment induced by MK-801; assay type: in vivo
# Description: The experiments were performed using male C57BL/6J mice weighting 25-30 g. The animals were maintained throughout the experimental period under standard laboratory conditions with free access to water and food will be used.
# HU-474 (3 and 10 mg/kg) was dissolved in 2% Tween 80 in sterile saline (vehicle). MK-801 (a NMDA antagonist, 0.5 mg/kg, Sigma, USA) was dissolved in saline. Drugs were administered intraperitoneally (ip) at 10 mL/kg volume.
# The animals (n=9-11/group) received i.p. administration of vehicle or HU-474 (3 and 10 mg/kg) followed, 30 minutes later, by saline or MK-801 (0.5 mg/kg), resulting in the following experimental groups: vehicle+saline, HU 10+saline, vehicle+MK-801, HU 3+MK-801, HU 10+MK-801. The animals were submitted to PPI test 20 minutes after the last drug injection.
# The PPI was carried out in three consecutive steps. The first consisted of an acclimation period during which no stimulus was presented. In the second step, called habituation, only the stimulus that triggers the startle (pulse) was presented. The step that assessed the inhibition of startle response pulse consisted of 64 random presentations of the different stimuli: (i) pulse (white noise) 105 dB at 20 ms, (II) pre-pulse (pure tone frequency of 7 kHz) 80, 85 and 90 dB at 10 ms, (III) followed by pre-pulse 100 ms interval between them and (IV) zero (no stimulus). During this session the stimuli are presented at regular intervals of 30 s, 8 presentations of each stimulus. The percentage of the PPI was expressed as the percent inhibition of startle amplitude in response to multiple presentations of the pulse preceded by pre-pulse (PP), depending on the amplitude of the response only to the pulse (P), which was obtained in the following formula: % PPI=100−((PP/P)×100). […]
# The percentage of PPI was analyzed by repeated measures MANOVA with the treatment as the independent factor and the prepulse intensity (80, 85 and 90 dB) as repeated measure.
# [9] = tested on: rats submitted to the elevated plus maze; experiment: Elevated plus-maze (EPM), intra-dlPAG microinjection in rats; assay type: in vivo, Wistar rats
# Description: as §1, §2
# Rats were submitted to a stereotaxic surgery to unilaterally implant cannulae (9.0 mm, 0.6 mm OD) into the dlPAG (coordinates: lateral: −1.9 mm; depth: −4.3 mm; angle: 16° from lambda; Paxinos and Watson, 2005), fixed to the skull with acrylic cement (Campos & Guimarães, 2008). The surgeries were performed under anesthesia with tribromoethanol 2.5% (10.0 mL/kg, IP) and immediately after the animals received Veterinary Pentabiotic (0.2 mL, intramuscular) and analgesic (Banamine, 1.0 mL/kg, subcutaneous) to prevent infections and decrease post-surgical pain. After surgery, animals underwent a recovery period of 5-7 days before the behavioral tests.
# Animals received unilateral microinjections of vehicle or HU-475 into the dlPAG before being submitted to the behavioral tests. To this aim, microneedles (10.0 mm, 0.3 mm OD), connected to a microsyringe (Hamilton, USA, […]) through a segment of polyethylene (P10) were inserted into the guide cannulae. Solutions were injected with the help of an infusion pump (KD Scientific, USA). A 0.2 μL solution volume was injected over 1 min. After the injections, the needles remained inserted in the cannulae for additional 30 seconds to prevent drug reflux (Campos & Guimarães, 2008).
# The wood EPM used to perform the experiments was located in a sound attenuated and temperature controlled room (23° C.), with one incandescent light (40 W) placed 1.3 m away from the maze. The apparatus consists of two opposing open arms (50×10 cm) without side walls, perpendicular to two enclosed arms (50×10×40 cm), with a central platform common to all arms (10×10 cm). The apparatus is elevated 50 cm above the ground and has an acrylic edge (1 cm) in the open arms to prevent animal falls. In this model, rodents naturally avoid the open arms, exploring more extensively the enclosed arms. […] The test lasted for 5 min and was recorded. The animal behavior was analyzed with the help of the Anymaze Software (version 4.5, Stoelting). […]
# as §3
structure (smiles),measurement,setting,value
"C=C(C)[C@@H]1CCC(C)=C[C@H]1c1c(O)cc(CCCCC)cc1O [CBD, cannabidiol]","effective dose (anxiolytic-like effect, EPM)",[1],30 nmol
same,dose able to attenuate the hyper-locomotion induced by MK801,Swiss mice [2],30 mg/kg
same,effective doses (hyperlocomotion induced by d-amphetamine),Swiss mice [3],30 mg/kg and 60 mg/kg
same,dose producing an antidepressant-like effect in the forced swimming test,mice tested in the FST [4],30 mg/kg
same,dose producing an anxiolytic-like effect in the Vogel punished licking test,[5],30 nmol
same,effective dose (attenuation of PPI deficits caused by MK801),Swiss mice [6],5 mg/kg
"C=C(C)[C@@H]1CCC(C)=CC1c1c(O)cc(CCCCC)c(F)c1O (some centres unmarked) [HU-474, 4′-fluoro-cannabidiol]",immobility time in the FST,"mice tested in the FST [7]; dose of 3 m/kg, p=0.019, FIG. 5",decreased
same,immobility time in the FST,mice tested in the FST [7]; doses of 1 and 10 mg/kg,ineffective
same,potency relative to CBD (forced swimming test),"mice tested in the FST [7]; i.p., compared with CBD effective dose",10 times
same,number of enclosed arms entries,"[8]; HU-474 1, 3 and 10 mg/kg IP",No effect
same,percentage of entries onto the open arms,"[8]; HU-474 1, 3 and 10 mg/kg IP, FIG. 4",No effect
same,percentage of time spent in the open arms,"[8]; HU-474 1, 3 and 10 mg/kg IP, X^2=8.13, DF=3, p<0.05, FIG. 3",increased
same,"effective dose (anxiolytic-like effects, EPM)","[8]; systemic administration, bell-shaped dose-response curve",3 mg/kg
same,MK-801 PPI disruption (effect of treatment),"C57BL/6J mice; HU-474 10 mg/kg i.p., MK-801 0.5 mg/kg, all prepulse intensities (80, 85, 90 dB), P<0.05, FIG. 6",attenuated
same,effective dose (attenuation of MK-801 PPI disruption),"C57BL/6J mice; i.p., C57BL/6J mice",10 mg/kg
"C=C(CF)[C@@H]1CCC(C)=CC1c1c(OC(C)=O)cc(CCCCC)cc1OC(C)=O (some centres unmarked) [HU-475, 10-fluoro-cannabidiol diacetate]",number of enclosed arm entries,"[9]; HU-475 1, 3 and 10 nmol intra-dlPAG",No effect
same,percentage of time spent into the open arms,"[9]; HU-475 1, 3 and 10 nmol intra-dlPAG, X^2=8.5, DF=4, p=0.075, FIG. 2",tended to do the same
same,percentage of entries onto the open arms,"[9]; HU-475 1, 3 and 10 nmol intra-dlPAG, X^2=9.66, DF=4, p<0.05, FIG. 1",increased
same,"potency relative to CBD (EPM, intra-dlPAG)","[9]; intra-dlPAG, compared with CBD effective dose",10 times
"C[C@]12N[C@H](Cc3ccccc31)c1ccccc12 [MK-801, reference compound]",effect on PPI,"C57BL/6J mice; MK-801 0.5 mg/kg i.p., all prepulse intensities tested, P<0.05, Duncan post-test",significant PPI disruption
